Measured values taken from ChEMBL document CHEMBL3351946, “Design and synthesis of potent antitumor water-soluble phenyl N-mustard-benzenealkylamide conjugates via a bioisostere approach” (Eur J Med Chem, 2014).
Calls of active or inactive are those of the source. The rule behind the calls is not given here.

What was measured:
HCT-116 [1] = assay: Antitumor activity against human HCT116 cells xenografted in nude mouse assessed as survival at 30 mg/kg,iv qd administered for 6 days; format: functional, organism-based; parameters: dose 30 mg/kg
[2] = Cell cycle arrest in human HCT116 cells assessed as accumulation at G1 phase at 1 uM after 72 hrs by FACS flow cytometric analysis (reference value: 76.29 +/- 2.65%); format: functional, cell-based; details: HCT-116
[3] = Cell cycle arrest in human HCT116 cells assessed as accumulation at sub-G1 phase at 4 uM after 72 hrs by FACS flow cytometric analysis (reference value: 3.29 +/- 1.39%); format: functional, cell-based; details: HCT-116
[4] = Cell cycle arrest in human HCT116 cells assessed as accumulation at G1 phase at 2 uM after 72 hrs by FACS flow cytometric analysis (reference value: 76.29 +/- 2.65%); format: functional, cell-based; details: HCT-116
Mus musculus [5] = assay: Toxicity in CD-1 (ICR) mouse assessed as gross lesions in thymus at 150 mg/kg, iv measured for 14 days; format: organism-based; parameters: dose 150 mg/kg, route intravenous; details: in vivo, 336 h
[6] = Cell cycle arrest in human HCT116 cells assessed as accumulation at sub-G1 phase at 4 uM after 48 hrs by FACS flow cytometric analysis (reference value: 1.65 +/- 0.06%); format: functional, cell-based; details: HCT-116
Mus musculus [7] = assay: Toxicity in iv dosed CD-1 (ICR) mouse assessed as swelling of mouth measured for 14 days; format: organism-based; details: in vivo, 336 h
[8] = Cell cycle arrest in human HCT116 cells assessed as accumulation at sub-G1 phase at 4 uM after 24 hrs by FACS flow cytometric analysis (reference value: 1.37 +/- 0.95%); format: functional, cell-based; details: HCT-116
Mus musculus [9] = assay: Toxicity in nude mouse xenografted with human HCT116 cells assessed as change in body weight at 30 mg/kg,iv qd administered for 6 days measured on day 31 relative to control; format: organism-based, HCT-116; parameters: dose 30 mg/kg; details: in vivo, 144 h
Mus musculus [10] = assay: Toxicity in iv dosed CD-1 (ICR) mouse assessed as hypoactivity measured for 14 days; format: organism-based; details: in vivo, 336 h
[11] = Cell cycle arrest in human HCT116 cells assessed as accumulation at G2/M phase at 2 uM after 48 hrs by FACS flow cytometric analysis (reference value: 23.95 +/- 1.87%); format: functional, cell-based; details: HCT-116
[12] = Cytotoxicity against human DLD1 cells assessed as growth inhibition after 72 hrs by Alamar Blue assay; format: functional, cell-based; details: DLD-1, 72 h
[13] = Cell cycle arrest in human HCT116 cells assessed as accumulation at S phase at 4 uM after 24 hrs by FACS flow cytometric analysis (reference value: 18.71 +/- 2.25%); format: functional, cell-based; details: HCT-116
[14] = Cell cycle arrest in human HCT116 cells assessed as accumulation at G2/M phase after 24 hrs by FACS flow cytometric analysis; format: functional, cell-based; details: HCT-116
[15] = Cell cycle arrest in human HCT116 cells assessed as accumulation at sub-G1 phase at 2 uM after 48 hrs by FACS flow cytometric analysis (reference value: 1.65 +/- 0.06%); format: functional, cell-based; details: HCT-116
[16] = Cell cycle arrest in human HCT116 cells assessed as accumulation at G2/M phase at 2 uM after 72 hrs by FACS flow cytometric analysis (reference value: 12.82 +/- 2.19%); format: functional, cell-based; details: HCT-116
Mus musculus [17] = assay: Toxicity in iv dosed CD-1 (ICR) mouse assessed as swelling of cheek measured for 14 days; format: organism-based; details: in vivo, 336 h
HCT-116 [18] = assay: Induction of DNA interstand crosslinking in human HCT116 cells under aerobic condition assessed as decrease in tail moment at 0.5 to 1 uM preincubated for 1 hr followed by 20 Gy X-ray irradiation by comet assay; format: cell-based
[19] = Induction of pEGFP-N1 DNA (unknown origin) interstand crosslinking after 2 hrs by alkaline agarose gel shift assay
Mus musculus [20] = assay: Toxicity in nude mouse xenografted with human PC3 cells assessed as change in body weight at 30 mg/kg,iv qd administered for 6 days measured on day 31 relative to control; format: organism-based, PC-3; parameters: dose 30 mg/kg; details: in vivo, 144 h
Mus musculus [21] = assay: Toxicity in iv dosed CD-1 (ICR) mouse assessed as dehydration measured for 14 days; format: organism-based; details: in vivo, 336 h
Mus musculus [22] = assay: Toxicity in iv dosed CD-1 (ICR) mouse assessed as soft feces measured for 14 days; format: organism-based; details: in vivo, 336 h
Mus musculus [23] = assay: Toxicity in iv dosed CD-1 (ICR) mouse assessed as hunch posture measured for 14 days; format: organism-based; details: in vivo, 336 h
[24] = Oral bioavailability in Sprague-Dawley rat at 50 mg/kg; format: ADME, organism-based; details: in vivo
PC-3 = assay: Antitumor activity against human PC3 cells xenografted in nude mouse assessed as survival at 40 mg/kg,iv administered every 2 days for 5 doses; format: functional, organism-based; parameters: dose 40 mg/kg
[25] = Antitumor activity against human PC3 cells xenografted in nude mouse assessed as tumor growth inhibition at 40 mg/kg,iv administered every 2 days for 5 doses measured on day 21 relative to control; format: functional, PC-3
Mus musculus [26] = assay: Toxicity in nude mouse xenografted with human H460 cells assessed as body weight loss at 30 mg/kg,iv qd administered for 6 days measured on day 37 relative to control; format: organism-based; parameters: dose 30 mg/kg; details: in vivo, 144 h
[27] = Terminal half life in Sprague-Dawley rat at 50 mg/kg, po; format: ADME, organism-based; parameters: dose 50 mg/kg, route oral; details: in vivo, read-out: beta t1/2 (converted)
[28] = Cell cycle arrest in human HCT116 cells assessed as accumulation at S phase at 2 uM after 72 hrs by FACS flow cytometric analysis (reference value: 7.49 +/- 0.95%); format: functional, cell-based; details: HCT-116
[29] = Cytotoxicity against human H460 cells assessed as growth inhibition after 72 hrs by Alamar Blue assay; format: functional, cell-based; details: NCI-H460, 72 h
[30] = Cell cycle arrest in human HCT116 cells assessed as accumulation at G1 phase at 1 uM after 48 hrs by FACS flow cytometric analysis (reference value: 62.16 +/- 5.94%); format: functional, cell-based; details: HCT-116
[31] = Cell cycle arrest in human HCT116 cells assessed as accumulation at S phase at 2 uM after 48 hrs by FACS flow cytometric analysis (reference value: 12.11 +/- 4.28%); format: functional, cell-based; details: HCT-116
HCT-116 [32] = assay: Induction of apoptosis in human HCT116 cells assessed as PARP cleavage at 1 to 4 uM after 24 hrs by Western blot analysis; format: functional, cell-based
[33] = Antitumor activity against human PC3 cells xenografted in nude mouse assessed as tumor growth inhibition at 30 mg/kg,iv qd administered for 6 days measured on day 21 relative to control; format: functional, PC-3
[34] = Antitumor activity against human H3347 cells xenografted in nude mouse assessed as tumor growth inhibition at 30 mg/kg,iv qd administered for 6 days measured on day 15 relative to control; format: functional
Mus musculus [35] = assay: Induction of apoptosis in HCT116 cells xenografted in nude mouse at 30 mg/kg, iv qd administered for 6 days measured 24 hrs post last dose by TUNEL assay; format: functional, organism-based; parameters: dose 30 mg/kg; details: HCT-116
[36] = Antitumor activity against human HCT116 cells xenografted in nude mouse assessed as tumor growth inhibition at 30 mg/kg,iv qd administered for 6 days measured on day 15 relative to control; format: functional, HCT-116
Mus musculus [37] = assay: Induction of apoptosis in HCT116 cells xenografted in nude mouse at 30 mg/kg, iv qd administered for 6 days measured 24 hrs post last dose by hematoxylin and eosin staining; format: functional, organism-based; parameters: dose 30 mg/kg; details: HCT-116
[38] = Cell cycle arrest in human HCT116 cells assessed as accumulation at G2/M phase at 2 uM after 24 hrs by FACS flow cytometric analysis (reference value: 31.55 +/- 4.63%); format: functional, cell-based; details: HCT-116

**Q.** Which results are given for `CCN(CC)CC(=O)Nc1ccc(NC(=O)Nc2ccc(N(CCCl)CCCl)cc2)cc1`?
**A.** Activity (HCT-116 [1]): Active; Activity [2]: 54.9%; Activity [3]: 17.9%; Activity [4]: 38.7%; Activity (Mus musculus [5]): Toxic; Activity [6]: 10.5%; Activity (Mus musculus [7]): Dose-dependent effect; Activity [8]: 4.31%; Activity (Mus musculus [9]): 9%; Activity (Mus musculus [10]): Dose-dependent effect; Activity [11]: 28.2%; IC50 [12]: 3850 nM; Activity [13]: 27.6%; Activity [14]: Dose-dependent effect; Activity [15]: 8.48%; Activity [16]: 29.2%; Activity (Mus musculus [17]): Dose-dependent effect; Activity (HCT-116 [18]): Active; Activity [19]: Dose-dependent effect; Activity (Mus musculus [20]): -28%; Activity (Mus musculus [21]): Dose-dependent effect; Activity (Mus musculus [22]): Dose-dependent effect; Activity (Mus musculus [23]): Dose-dependent effect; bioavailability [24]: 5.32%; Activity (PC-3): Active; %max [25]: 68%; Activity (Mus musculus [26]): -5%; half-life [27]: 1.01 h; Activity [28]: 12.1%; IC50 [29]: 930 nM; Activity [30]: 49.6%; Activity [31]: 11.9%; Activity (HCT-116 [32]): Active; %max [33]: 56%; %max [34]: 94%; Activity (Mus musculus [35]): Active; %max [36]: 91%; Activity (Mus musculus [37]): Active; Activity [38]: 64.3%
